From patent publication US12686652B2, “Methods of increasing irrigation water and fertilizer delivery to soil using formic acid and formate salts, making a formate salt from carbon dioxide, and generating a carbon credit” (Deerpoint Group, Inc., priority 2023, dated 2026)
Several values for one entry are separate records, joined by “and”; a condition that tells them apart may be missing. Equal values may be shown once. Read-outs that look alike come from different tables or passages of the source.

What was measured:
[1] = for Liquid Eluted after 60 min / Liquid Eluted after 120 min / Time (50 g of liquid, in min) / Liquid Eluted after 240 min: Ca formate 22 ppm by moles, average of two columns; for Liquid Eluted after 60 min / Liquid Eluted after 120 min / Time (50 g of liquid, in min): HCO2H 0.33% by weight
Description: The objective was to investigate the behavior of different irrigation water treatments and determine the relative amounts of water that passed through the soil columns. The column retention times reflect the rate at which the liquid passes through the soil. Understanding these retention times provides insights about the transport and movement of irrigation water (and any fertilizers dissolved therein) through the soil, which has implications for the volume of water passing into and through the root zone, nutrient availability to crops, leaching of contaminants, and overall soil health.
The data in Table 1 is for the average of the two soil samples.

[2] = Description: The irrigation water at the second farm was from a different source than the first farm.
[3] = first farm soil, duplicate columns A and B
[4] = ICP and flow injection (FIA) analyses of solutions passed through soil columns, second farm; settings: single soil sample
[5] = for Solubility as percentage of the solubility of potassium formate in water: 68-86° F. (20-30° C.); for Solubility (g K2O/100 g H2O): water
[6] = first pass, dry soil, second farm (FIG. 3)
[7] = 1st pass, Alternating = formic acid pass
[8] = 2nd pass, Alternating = calcium formate pass
[9] = 3rd pass, Alternating = formic acid pass
[10] = 4th pass, Alternating = calcium formate pass
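For Mn in solution passed through soil column (ICP) in this document: eluate from PVC columns holding 100 g of dry ground farm soil, analysed by ICP-OES for element content after the solution had drained through, irrigation water measured as received for reference.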

O=C[O-].O=C[O-].[Ca+2] [Ca formate, calcium formate]
Drainage Rate: Time (50 g), percentage relative to irrigation water ([1]; 1st pass, first farm soil): 66.7% | Drainage Rate: liquid eluted at 60 mins, percentage relative to irrigation water ([1]; 1st pass, first farm soil): 180% | Drainage Rate: liquid eluted at 120 mins, percentage relative to irrigation water ([1]; 1st pass, first farm soil): 152% | Liquid Eluted after 60 min ([1]; 1st pass, first farm soil): 28.6 g | Liquid Eluted after 120 min ([1]; 1st pass, first farm soil): 53.9 g | Time (50 g of liquid, in min) ([1]; 1st pass, first farm soil): 120 min | Drainage Rate: Time (50 g), percentage relative to irrigation water ([1]; 2nd pass, first farm soil): 66.7% | Drainage Rate: liquid eluted at 60 mins, percentage relative to irrigation water ([1]; 2nd pass, first farm soil): 157% | Drainage Rate: liquid eluted at 120 mins, percentage relative to irrigation water ([1]; 2nd pass, first farm soil): 150% | Drainage Rate: liquid eluted at 240 min, percentage relative to irrigation water ([1]; 2nd pass, first farm soil): 137% | Liquid Eluted after 60 min ([1]; 2nd pass, first farm soil): 33.3 g | Liquid Eluted after 120 min ([1]; 2nd pass, first farm soil): 59.9 g | Time (50 g of liquid, in min) ([1]; 2nd pass, first farm soil): 120 min | Liquid Eluted after 240 min ([1]; 2nd pass, first farm soil): 98.5 g | Drainage Rate: Time (50 g), percentage relative to irrigation water ([1]; 3rd pass, first farm soil): 83.3% | Drainage Rate: liquid eluted at 60 mins, percentage relative to irrigation water ([1]; 3rd pass, first farm soil): 138% | Drainage Rate: liquid eluted at 120 mins, percentage relative to irrigation water ([1]; 3rd pass, first farm soil): 135% | Drainage Rate: liquid eluted at 240 min, percentage relative to irrigation water ([1]; 3rd pass, first farm soil): 131% | Liquid Eluted after 60 min ([1]; 3rd pass, first farm soil): 26.4 g | Liquid Eluted after 120 min ([1]; 3rd pass, first farm soil): 48.8 g | Time (50 g of liquid, in min) ([1]; 3rd pass, first farm soil): 150 min | Liquid Eluted after 240 min ([1]; 3rd pass, first farm soil): 86.7 g | Drainage Rate: Time (50 g), percentage relative to irrigation water ([1]; 4th pass, first farm soil): 83.3% | Drainage Rate: liquid eluted at 60 mins, percentage relative to irrigation water ([1]; 4th pass, first farm soil): 123% | Drainage Rate: liquid eluted at 120 mins, percentage relative to irrigation water ([1]; 4th pass, first farm soil): 118% | Drainage Rate: liquid eluted at 240 min, percentage relative to irrigation water ([1]; 4th pass, first farm soil): 110% | Liquid Eluted after 60 min ([1]; 4th pass, first farm soil): 24.1 g | Liquid Eluted after 120 min ([1]; 4th pass, first farm soil): 44.6 g | Time (50 g of liquid, in min) ([1]; 4th pass, first farm soil): 150 min | Liquid Eluted after 240 min ([1]; 4th pass, first farm soil): 75.0 g | Liquid retained by the soil samples on average ([1]; first pass, dry soil, first farm, 100 ml added (FIG. 1)): about 36 ml | Improvement in amount of liquid eluted compared to the irrigation water ([1]; fixed periods 60, 120 and 240 mins, first farm soil): 110-180% | Liquid retained by the soil samples on average [2, 6]: 43 to 44 mL | Time at which solution had completed passing through the soil column on average [2, 6]: about 240 minutes | Time of first appearance of liquid from the columns on average [2, 6]: 20 to 30 min | Amount of liquid passed through the columns compared with irrigation water at the same lengths of time ([2]; first pass, second farm, from 20-30 minutes up to 240 minutes): more than three times as much | Time at which solution had completed passing through the soil column on average ([2]; second pass, wet/damp soil, second farm (FIG. 4)): about 390 minutes | B in solution passed through soil column (ICP) ([3]; 1st pass): 4.35 ppm and 4.97 ppm | Ca in solution passed through soil column (ICP) ([3]; 1st pass): 135.1 ppm and 142.4 ppm | K in solution passed through soil column (ICP) ([3]; 1st pass): 10.81 ppm and 11.82 ppm | Mg in solution passed through soil column (ICP) ([3]; 1st pass): 53.6 ppm and 56.4 ppm | Mn in solution passed through soil column (ICP) ([3]; 1st pass): 1.95 ppm and 2.09 ppm | Na in solution passed through soil column (ICP) ([3]; 1st pass): 82.3 ppm and 88.9 ppm | P in solution passed through soil column (ICP) ([3]; 1st pass): 0.45 ppm and 0.36 ppm | S in solution passed through soil column (ICP) ([3]; 1st pass): 99.1 ppm and 103.0 ppm | Si in solution passed through soil column (ICP) ([3]; 1st pass): 26.5 ppm and 27.6 ppm | B in solution passed through soil column (ICP) ([3]; 2nd pass): 2.41 ppm and 2.40 ppm | Ca in solution passed through soil column (ICP) ([3]; 2nd pass): 26.6 ppm and 25.2 ppm | K in solution passed through soil column (ICP) ([3]; 2nd pass): 5.69 ppm and 5.73 ppm | Mg in solution passed through soil column (ICP) ([3]; 2nd pass): 10.4 ppm and 9.8 ppm | Mn in solution passed through soil column (ICP) ([3]; 2nd pass): 0.19 ppm and 0.22 ppm | Na in solution passed through soil column (ICP) ([3]; 2nd pass): 36.8 ppm and 38.2 ppm | P in solution passed through soil column (ICP) ([3]; 2nd pass): 0.40 ppm and 0.41 ppm | S in solution passed through soil column (ICP) ([3]; 2nd pass): 21.2 ppm and 19.6 ppm | Si in solution passed through soil column (ICP) ([3]; 2nd pass): 25.2 ppm and 26.2 ppm | B in solution passed through soil column (ICP) ([3]; 3rd pass): 1.74 ppm and 1.48 ppm | Ca in solution passed through soil column (ICP) ([3]; 3rd pass): 21.1 ppm and 19.4 ppm | K in solution passed through soil column (ICP) ([3]; 3rd pass): 6.01 ppm and 5.41 ppm | Mg in solution passed through soil column (ICP) ([3]; 3rd pass): 8.2 ppm and 7.6 ppm | Na in solution passed through soil column (ICP) ([3]; 3rd pass): 32.7 ppm and 31.1 ppm | P in solution passed through soil column (ICP) ([3]; 3rd pass): 0.68 ppm and 0.58 ppm | S in solution passed through soil column (ICP) ([3]; 3rd pass): 13.9 ppm and 13.0 ppm | Si in solution passed through soil column (ICP) ([3]; 3rd pass): 28.4 ppm and 26.2 ppm | B in solution passed through soil column (ICP) ([3]; 4th pass): 0.69 ppm and 0.73 ppm | Ca in solution passed through soil column (ICP) ([3]; 4th pass): 15.0 ppm and 15.9 ppm | K in solution passed through soil column (ICP) ([3]; 4th pass): 5.09 ppm and 5.06 ppm | Mg in solution passed through soil column (ICP) ([3]; 4th pass): 5.9 ppm and 6.0 ppm | Mn in solution passed through soil column (ICP) ([3]; 4th pass): 0.05 ppm and 0.04 ppm | Na in solution passed through soil column (ICP) ([3]; 4th pass): 21.6 ppm and 22.9 ppm | P in solution passed through soil column (ICP) ([3]; 4th pass): 0.56 ppm | S in solution passed through soil column (ICP) ([3]; 4th pass): 5.3 ppm and 5.5 ppm | Si in solution passed through soil column (ICP) ([3]; 4th pass): 22.3 ppm and 22.7 ppm | B in solution passed through soil column (ICP) [4, 7]: 0.5 ppm | Ca in solution passed through soil column (ICP) [4, 7]: 76.1 ppm | Cl^− in solution passed through soil column (FIA) [4, 7]: 288.0 ppm | K in solution passed through soil column (ICP) [4, 7]: 4.5 ppm | Mg in solution passed through soil column (ICP) [4, 7]: 19.6 ppm | NO3^− in solution passed through soil column (FIA) [4, 7]: 0.0 ppm | Na in solution passed through soil column (ICP) [4, 7]: 169.0 ppm | P in solution passed through soil column (ICP) [4, 7]: 1.0 ppm | S in solution passed through soil column (ICP) [4, 7]: 51.4 ppm | Si in solution passed through soil column (ICP) [4, 7]: 26.3 ppm | B in solution passed through soil column (ICP) [4, 8]: 0.3 ppm | Ca in solution passed through soil column (ICP) [4, 8]: 24.0 ppm | Cl^− in solution passed through soil column (FIA) [4, 8]: 92.1 ppm | K in solution passed through soil column (ICP) [4, 8]: 2.5 ppm | Mg in solution passed through soil column (ICP) [4, 8]: 6.1 ppm | NO3^− in solution passed through soil column (FIA) [4, 8]: 0.0 ppm | Na in solution passed through soil column (ICP) [4, 8]: 110.4 ppm | P in solution passed through soil column (ICP) [4, 8]: 1.1 ppm | S in solution passed through soil column (ICP) [4, 8]: 14.8 ppm | Si in solution passed through soil column (ICP) [4, 8]: 26.9 ppm | B in solution passed through soil column (ICP) [4, 9]: 0.2 ppm | Ca in solution passed through soil column (ICP) [4, 9]: 21.7 ppm | Cl^− in solution passed through soil column (FIA) [4, 9]: 91.9 ppm | K in solution passed through soil column (ICP) [4, 9]: 2.4 ppm | Mg in solution passed through soil column (ICP) [4, 9]: 5.5 ppm | NO3^− in solution passed through soil column (FIA) [4, 9]: 0.0 ppm | Na in solution passed through soil column (ICP) [4, 9]: 96.4 ppm | P in solution passed through soil column (ICP) [4, 9]: 1.0 ppm | S in solution passed through soil column (ICP) [4, 9]: 10.3 ppm | Si in solution passed through soil column (ICP) [4, 9]: 24.3 ppm | B in solution passed through soil column (ICP) [4, 10]: 0.2 ppm | Ca in solution passed through soil column (ICP) [4, 10]: 30.4 ppm | Cl^− in solution passed through soil column (FIA) [4, 10]: 93.6 ppm | K in solution passed through soil column (ICP) [4, 10]: 2.4 ppm | Mg in solution passed through soil column (ICP) [4, 10]: 7.5 ppm | NO3^− in solution passed through soil column (FIA) [4, 10]: 0.0 ppm | Na in solution passed through soil column (ICP) [4, 10]: 95.4 ppm | P in solution passed through soil column (ICP) [4, 10]: 0.9 ppm | S in solution passed through soil column (ICP) [4, 10]: 10.1 ppm | Si in solution passed through soil column (ICP) [4, 10]: 23.3 ppm

[Cl-].[K+] [KCl, potassium chloride]
Solubility as percentage of the solubility of potassium formate in water [5]: about 12% | Solubility (g K2O/100 g H2O) ([5]; 32 ° F.): 18 g K2O/100 g H2O | Solubility (g K2O/100 g H2O) ([5]; 68 ° F.): 22 g K2O/100 g H2O | Solubility (g K2O/100 g H2O) ([5]; 86 ° F.): 24 g K2O/100 g H2O

O=S([O-])([O-])=S.[K+].[K+] [K2SSO3, potassium thiosulfate]
Solubility as percentage of the solubility of potassium formate in water [5]: about 40% | Solubility (g K2O/100 g H2O) ([5]; 32 ° F.): 48 g K2O/100 g H2O | Solubility (g K2O/100 g H2O) ([5]; 68 ° F.): 77 g K2O/100 g H2O | Solubility (g K2O/100 g H2O) ([5]; 86 ° F.): 87 g K2O/100 g H2O
